Publication PMC3973950, “Synthesis of 5-arylidine amino-1,3,4-thiadiazol-2-[(N-substituted benzyol)]sulphonamides endowed with potent antioxidants and anticancer activity induces growth inhibition in HEK293, BT474 and NCI-H226 cells” (Medicinal Chemistry Research, 2013)

Columns and labels:
[1] = In vitro cytotoxicity by MTT assay, HEK 293; format: cell-based, human; details: human, HEK 293 cells, read-out: % cytotoxicity (100 − % cell survival) of HEK 293 cell line
Summary of the method: (§1)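 Cells seeded at ~10,000/well in RPMI-1640 with 10 % newborn calf serum, grown 24 h, then exposed to compounds for 72 h at 37 °C, 5 % CO2. Viability read by MTT (4 h), formazan dissolved in propanol, absorbance at 490 nm.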

[2] = tested on: BT474 (breast cancer cell line); experiment: In vitro cytotoxicity by MTT assay, BT474; format: cell-based; details: Homo sapiens, 72 h, read-out: % cytotoxicity (100 − % cell survival) of BT474 cell line; for cytotoxicity at 0.005 µM: BT-474, 0.005 μM; for cytotoxicity at 0.015 µM: BT-474, 0.015 μM; for cytotoxicity at 0.045 µM: BT-474, 0.045 μM; for cytotoxicity at 0.13 µM: BT-474, 0.13 μM; for cytotoxicity at 0.41 µM: BT-474, 0.41 μM; for cytotoxicity at 1.23 µM: BT-474, 1.23 μM; for cytotoxicity at 3.7 µM: BT-474, 3.7 μM; for cytotoxicity at 11.11 µM: BT-474, 11.11 μM; for cytotoxicity at 33.33 µM: BT-474, 33.33 μM; for cytotoxicity at 100 µM: BT-474, 100 μM
Summary of the method: as §1

[3] = tested on: HEK 293, M468 and NCI-H226; experiment: In vitro cytotoxicity by MTT assay, summary over all cell lines; format: cell-based; details: on all cell lines
Method: The cancer cell line cultures of HEK 293 ([…]), BT474 (breast cancer cell line) and NCI-H226 (lung cancer) were obtained from Pasteur Institute of India, Coonoor, India, and were cultured in RPMI-1640 and 10 % heat-[…] New born calf serum with antibiotics [penicillin ([…]), streptomycin (100 μg/mL) and amphotericin B (25 μg/mL)]. The cells were maintained at 37 °C in a humidified atmosphere with 5 % CO2 and were subcultured twice a week.
The monolayer cell culture (100 μL) was trypsinized, and the cell count was adjusted to […] using medium containing 10 % new born calf serum. To each well of the 96-well microtitre plate, the diluted cell suspension (approximately 10,000 cells) (0.1 mL) was added and kept for 24 h in incubator at 37 °C in 5 % CO2 atmosphere for cell monolayer formation. After 24 h, when a partial monolayer was formed at the bottom of the well, the supernatant was flicked off, the monolayer was washed once, and different drugs, i.e. synthesized compounds (100 μL), were added to the cells in microtitre plates. The plates were then incubated at 37 °C for 3 days in 5 % CO2 atmosphere, and microscopic examination was carried out and observations recorded every 24 h. After 72 h, the sample solution in the wells was flicked off; MTT dye ([…]) was added to each well; plates were gently shaken and incubated for 4 h at 37 °C in 5 % CO2 incubator. The supernatant was removed and propanol (50 μL) was added; the plates were gently shaken to solubilize the formed formazan. The absorbance was measured using a microplate reader at a wavelength of 490 nm (Edmondson et al., [1988]; Prasad et al., [2005]; Chiruvella et al., [2008]; Chang et al., [2007]).

[4] = tested on: NCI-H226 (lung cancer cell line); experiment: In vitro cytotoxicity by MTT assay, NCI-H226; format: cell-based; details: Homo sapiens, 72 h, read-out: % Cytotoxicity (100 − % cell survival) of NCI-H226 cell line; for cytotoxicity at 0.005 µM: NCI-H226, 0.005 μM; for cytotoxicity at 0.045 µM: NCI-H226, 0.045 μM; for cytotoxicity at 0.13 µM: NCI-H226, 0.13 μM; for cytotoxicity at 0.41 µM: NCI-H226, 0.41 μM; for cytotoxicity at 1.23 µM: NCI-H226, 1.23 μM; for cytotoxicity at 3.7 µM: NCI-H226, 3.7 μM; for cytotoxicity at 11.11 µM: NCI-H226, 11.11 μM; for cytotoxicity at 33.33 µM: NCI-H226, 33.33 μM; for cytotoxicity at 100 µM: NCI-H226, 100 μM
Summary of the method: as §1

[5] = In vitro cytotoxicity by MTT assay, NCI-H226; format: cell-based; details: human, NCI-H226 lung cancer cells, 0.015 μM, read-out: % Cytotoxicity (100 − % cell survival) of NCI-H226 cell line
Summary of the method: as §1

[6] = DPPH radical scavenging activity; format: biochemical; details: Conc. ± SD; standard ascorbic acid; read-out: IC50 inhibitory concentration, DPPH radical
Method: Compounds of SC series were evaluated for their in vitro free radical scavenging activities by 2,2-diphenyl-1-picrylhydrazyl (DPPH) assay method (Blois, [1958]; Shishoo et al., [1999]; Chhajed et al., [2007]). To determine the free radical scavenging activity, a method based on the reduction of a methanolic solution of the coloured DPPH radical was used. To a set of test tubes containing methanol (3 mL), DPPH reagent (2 mg/mL) (50 μL) was added. The initial absorbance was measured. To these test tubes, methanolic solution of different test solutions (1 mg/mL) were added (10–50 μL). Ascorbic acid (0.5 mg/mL) was also added in the concentration of 10, 20, 30, 40, 50 and 100 μL. After 20 min, absorbance was recorded at 516 nm. The experiment was performed in triplicate. The percentage reduction in absorbance was calculated from the initial and final absorbance of each solution (Dhar and Taploo, [1982]).

[7] = Lipid peroxidation inhibitory activity (egg lecithin liposomes, TBA); format: biochemical; details: Conc. ± SD; standard ascorbic acid; read-out: IC50 inhibitory concentration, Lipid peroxidation
Method: Egg lecithin (3 mg/mL phosphate buffer, pH 7.4) was sonicated in an ultrasonic sonicator for 10 min to ensure proper liposome formation. Test samples or standard, ascorbic acid (100 μL) of different concentrations (10, 20, 30, 40 50 and 100 μg/mL) was added to liposome mixture (1 mL); the control was without test sample. Lipid peroxidation was induced by adding ferric chloride (10 μL, 400 mM) and L-ascorbic acid (10 μL, 200 mM). After incubation for 1 h at 37 °C, the reaction was stopped by adding hydrochloric acid (2 mL, 0.25 N) containing trichloroacetic acid (150 mg/mL), thiobarbituric acid (3.75 mg/mL) and butylated hydroxy anisole (0.50 mg/mL). The reaction mixture was subsequently boiled for 15 min, cooled and centrifuged at 1,000 rpm for 15 min, and the absorbance of the supernatant was measured at 532 nm (Duh and Yen, [1997]). The % inhibition at different concentrations was calculated by the following formula %Inhibition=[1-(Vt/Vc)]×100 where V t = mean absorption of test compound, V c = mean absorption of control.
The IC50 (nM/mL) value was derived from the % inhibition at different concentrations.

[8] = Total antioxidant activity (ABTS radical cation scavenging); format: biochemical; details: Conc. ± SD; three independent experiments in duplicate; standard trolox; read-out: IC50 inhibitory concentration, ABTS^+ radical
Method: The ability of the test sample to scavenge 2,2′-azinobis-(3-ethylbenzothiazoline-6-sulphonic acid) (ABTS^·+) radical cation was compared with 6-hydroxy-2,5,7,8-tetramethylchroman-2-carboxylic acid (trolox) standard (Chang et al., [2007]; Erel, [2004]; Re et al., [1999]). The ABTS^·+ radical cation was pregenerated by mixing ABTS stock solution (7 mM) with potassium persulphate (2.45 mM) (final concentration) and incubating for 12–16 h in the dark at room temperature until the reaction was complete and the absorbance was stable. The absorbance of the ABTS^·+ solution was equilibrated to 0.70 (±0.02) by diluting with water at room temperature, then 1 mL of solution was mixed with 10 μL of the test sample (0.05–10 mg/mL), and the absorbance was measured at 734 nm after 6 min. All experiments were repeated three times. The percentage inhibition of absorbance was calculated and plotted as a function of the concentration of standard and sample to determine the trolox equivalent antioxidant concentration (TEAC). To calculate the TEAC, the gradient of the plot for the sample was divided by the gradient of the plot for trolox. The IC50 inhibitory concentration (nM/mL) values of tested compounds are depicted in Table 1. The ABTS^·+ radical scavenging activity of the samples was expressed as S%=[(Acontrol-Asample)/Acontrol]×100 where A control is the absorbance of the blank control (ABTS^·+ solution without test sample), and A sample is the absorbance of the test sample.

SMILES	cytotoxicity at 72 h, 0.005 µM [1] [%]	cytotoxicity at 72 h, 0.015 µM [1] [%]	cytotoxicity at 72 h, 0.045 µM [1] [%]	cytotoxicity at 72 h, 0.13 µM [1] [%]	cytotoxicity at 72 h, 0.41 µM [1] [%]	cytotoxicity at 72 h, 1.23 µM [1] [%]	cytotoxicity at 72 h, 3.7 µM [1] [%]	cytotoxicity at 72 h, 11.11 µM [1] [%]	cytotoxicity at 72 h, 33.33 µM [1] [%]	cytotoxicity at 72 h, 100 µM [1] [%]	cytotoxicity at 0.005 µM [2] [%]	cytotoxicity at 0.015 µM [2] [%]	cytotoxicity at 0.045 µM [2] [%]	cytotoxicity at 0.13 µM [2] [%]	cytotoxicity at 0.41 µM [2] [%]	cytotoxicity at 1.23 µM [2] [%]	cytotoxicity at 3.7 µM [2] [%]	cytotoxicity at 11.11 µM [2] [%]	cytotoxicity at 33.33 µM [2] [%]	cytotoxicity at 100 µM [2] [%]	also measured
Nc1nnc(S(=O)(=O)NC(=O)c2ccccc2)s1 [Compound 4a, 5-amino-1,3,4-thiadiazol-2-[N-(benzoyl)]sulphonamide]	25.6	25.8	26.6	26.9	28.2	28.5	28.9	29.5	31.7	33	20.1	22.6	23.1	24.6	25.4	25.9	26.3	27.4	28.1	28.7	cytotoxic activity compared with all synthesized compounds [3]: less activity; cytotoxicity at 0.005 µM [4]: 22.4%; cytotoxicity at 0.045 µM [4]: 24.2%; cytotoxicity at 0.13 µM [4]: 24.9%; cytotoxicity at 0.41 µM [4]: 25.5%; cytotoxicity at 1.23 µM [4]: 26.1%; cytotoxicity at 3.7 µM [4]: 26.6%; cytotoxicity at 11.11 µM [4]: 27.1%; cytotoxicity at 33.33 µM [4]: 27.5%; cytotoxicity at 100 µM [4]: 27.9%; cytotoxicity at 72 h, 0.015 µM [5]: 23.1%
O=C1O[C@H]([C@@H](O)CO)C(O)=C1O [ascorbic acid, reference compound]																					IC50 [6]: 187 ± 35.4 µM; IC50 [7]: 150 ± 16.9 µM
Cc1c(C)c2c(c(C)c1O)CCC(C)(C(=O)O)O2 (stereo not drawn) [trolox, 6-hydroxy-2,5,7,8-tetramethylchroman-2-carboxylic acid, reference compound]																					IC50 [8]: 84.5 ± 9.39 µM
O=C(NS(=O)(=O)c1nnc(N=Cc2ccco2)s1)c1ccccc1 [Compound 9j, N-({5-[(Furan-2-ylmethylidene)amino]-1,3,4-thiadiazol-2-yl}sulfonyl)benzamide]	31.4	32.8	33.7	34.3	34.5	35	35.3	36.1	36.9	38.9	30.4	34.6	37.4	40.1	43.6	45.1	49.3	52.1	56.9	61.4	melting point: 261 to 263 °C; cytotoxic activity compared with all synthesized compounds [3]: more potent; cytotoxicity at 0.005 µM [4]: 33%; cytotoxicity at 0.045 µM [4]: 34.6%; cytotoxicity at 0.13 µM [4]: 35.3%; cytotoxicity at 0.41 µM [4]: 36.1%; cytotoxicity at 1.23 µM [4]: 37%; cytotoxicity at 3.7 µM [4]: 39.1%; cytotoxicity at 11.11 µM [4]: 42.7%; cytotoxicity at 33.33 µM [4]: 45.4%; cytotoxicity at 100 µM [4]: 52.4%; cytotoxicity at 72 h, 0.015 µM [5]: 33.2%
